Our source for the IC50 and inhibition values is patent US9695154B2, “Heteroaryl inhibitors of sumo activating enzyme” (MILLENNIUM PHARMACEUTICALS, INC., priority 2013, dated 2017).

The test concerns the target T1, recombinant human SAE enzyme (Homo sapiens, UniProt Q9UBT2).
T1 sequence (Q9UBT2 1-640): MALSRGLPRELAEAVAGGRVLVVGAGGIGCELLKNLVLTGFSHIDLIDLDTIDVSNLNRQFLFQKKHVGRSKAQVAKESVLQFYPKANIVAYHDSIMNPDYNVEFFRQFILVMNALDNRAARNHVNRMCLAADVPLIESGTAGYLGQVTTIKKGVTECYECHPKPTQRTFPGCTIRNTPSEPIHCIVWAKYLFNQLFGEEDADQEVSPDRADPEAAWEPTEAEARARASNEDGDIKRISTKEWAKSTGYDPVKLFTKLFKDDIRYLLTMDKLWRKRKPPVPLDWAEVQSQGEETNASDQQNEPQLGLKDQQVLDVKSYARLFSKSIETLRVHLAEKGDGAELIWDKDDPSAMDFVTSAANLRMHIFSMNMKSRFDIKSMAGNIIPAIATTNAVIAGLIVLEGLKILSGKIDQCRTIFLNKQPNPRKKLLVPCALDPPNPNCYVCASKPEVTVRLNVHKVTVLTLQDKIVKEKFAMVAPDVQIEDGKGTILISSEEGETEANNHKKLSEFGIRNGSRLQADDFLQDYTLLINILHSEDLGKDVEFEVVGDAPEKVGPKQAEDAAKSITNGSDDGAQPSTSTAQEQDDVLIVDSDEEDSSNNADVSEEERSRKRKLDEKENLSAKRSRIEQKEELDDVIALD
T1 sequence (Q9UBE0 1-346 partner): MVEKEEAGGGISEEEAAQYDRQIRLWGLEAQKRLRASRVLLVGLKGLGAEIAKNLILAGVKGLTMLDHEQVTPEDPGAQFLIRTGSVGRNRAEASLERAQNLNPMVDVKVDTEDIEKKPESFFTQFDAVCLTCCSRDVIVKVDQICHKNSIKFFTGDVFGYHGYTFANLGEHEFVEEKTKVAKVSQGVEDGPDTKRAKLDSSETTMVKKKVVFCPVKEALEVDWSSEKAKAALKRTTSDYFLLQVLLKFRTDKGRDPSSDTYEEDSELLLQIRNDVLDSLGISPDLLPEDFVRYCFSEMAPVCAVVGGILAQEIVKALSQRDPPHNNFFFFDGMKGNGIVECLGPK
Description: SAE HTRF Enzyme Assay. Type of test: biochemical. The conditions noted are these: for IC50: class symbols A-C; for inhibition at 0.111 µM: compound concentration 0.111 μM, read-out: Percent Inhibition. As to the method: The SAE enzymatic reaction totals 50 μl and contains 50 mM HEPES Hemisodium (pH 7.5), 0.05% BSA, 5 mM MgCl2, 0.5 μM ATP, 250 μM GSH, 0.01 μM Ubc9-GST, 0.125 μM Sumo-Flag and 0.11 nM recombinant human SAE enzyme. The enzymatic reaction mixture with and without inhibitor, Is incubated at 24° C. for 105 min in a 384-well plate before termination with […] of Stop/Detection buffer (0.1M HEPES Hemisodium pH 7.5, 0.05% Tween20, 20 mM EDTA, 410 mM KF, 0.53 nM Europium-Cryptate labeled monoclonal anti-Flag M2 Antibody (CisBio International) and 8.125 μg/ml PHYCOLINK goat anti-GST allophycocyanin (XL-APC) antibody (Prozyme)). After incubation for 2 hours at 24° C., quantification of FRET is performed on the Pherostar™ (BMG Labtech). Percentage inhibition values at a single concentration or enzyme inhibition (IC50) values are determined from those curves. One skilled in the art will appreciate that the values generated either as percentage inhibition at a single concentration or IC50 values are subject to experimental variation.
A general note: Time-resolved FRET reads energy transfer from a long-lived donor to a nearby acceptor.

In general, IC50 refers to the concentration at which inhibition is half-maximal. The term inhibition denotes the change of the read-out against control, counted positive when it falls. As for `NS(=O)(=O)OC[C@H]1C[C@@H](Nc2ncncc2C(=O)c2ccn(S(=O)(=O)c3cccc(Br)c3)c2)C[C@@H]1O` [Compound I-255, [(1R,2S,4R)-4-{[5-({1-[(3-bromophenyl)sulfonyl]-1H-pyrrol-3-yl}carbonyl)pyrimidin-4-yl]amino}-2-hydroxycyclopentyl]methyl sulfamate], the IC50 is less than 10 nM and the inhibition at 0.111 µM came out at 97%.
The like results for `NS(=O)(=O)OC[C@H]1C[C@@H](Nc2ccncc2C(=O)c2ccn(Cc3cccc(Cl)c3)n2)[C@H](O)[C@@H]1O` [Compound I-81, {(1R,2R,3S,4R)-4-[(3-{[1-(3-chlorobenzyl)-1H-pyrazol-3-yl]carbonyl}pyridin-4-yl)amino]-2,3-dihydroxycyclopentyl}methyl sulfamate] were, in that order, less than 10 nM and 98%.
`NS(=O)(=O)OC[C@H]1C[C@@H](Nc2ncncc2C(=O)c2cc(Cl)n(Cc3cccc(C(F)(F)F)c3)c2)[C@@H](F)[C@@H]1O` [Compound I-184, [(1R,2R,3R,4R)-4-{[5-({5-chloro-1-[3-(trifluoromethyl)benzyl]-1H-pyrrol-3-yl}carbonyl)pyrimidin-4-yl]amino}-3-fluoro-2-hydroxycyclopentyl]methyl sulfamate]: the IC50 is less than 10 nM and the inhibition at 0.111 µM was 97%.
In the same order, the values of `NS(=O)(=O)OC[C@H]1C[C@@H](Nc2ncncc2C(=O)c2ccn(Cc3ccc(F)cc3)n2)[C@H](O)[C@@H]1O` [Compound I-106, {(1R,2R,3S,4R)-4-[(5-{[1-(4-fluorobenzyl)-1H-pyrazol-3-yl]carbonyl}pyrimidin-4-yl)amino]-2,3-dihydroxycyclopentyl}methyl sulfamate] are less than 10 nM and greater than 99%.
`NS(=O)(=O)OC[C@H]1C[C@@H](Nc2ncncc2C(=O)c2ccn(Cc3cccc(I)c3)n2)C[C@@H]1O` [Compound I-292, {(1R,2S,4R)-2-Hydroxy-4-[(5-{[1-(3-iodobenzyl)-1H-pyrazol-3-yl]carbonyl}pyrimidin-4-yl)amino]cyclopentyl}methyl sulfamate]: the IC50 is less than 10 nM and the inhibition at 0.111 µM is 98%.
The like results for `CC(C)(O)c1cccc(Cn2ccc(C(=O)c3cncnc3N[C@@H]3C[C@H](COS(N)(=O)=O)[C@@H](O)C3)n2)c1` [Compound I-60, [(1R,2S,4R)-2-hydroxy-4-{[5-({1-[3-(2-hydroxypropan-2-yl)benzyl]-1H-pyrazol-3-yl}carbonyl)pyrimidin-4-yl]amino}cyclopentyl]methyl sulfamate] were, in that order, 10 to 100 nM and 91%.
In the same order, the values of `NS(=O)(=O)OC[C@H]1C[C@@H](Nc2ncncc2C(=O)c2ccn(Cc3ccccc3)n2)[C@@H](O)[C@@H]1O` [Compound I-135, [(1R,2R,3R,4R)-4-({5-[(1-Benzyl-1H-pyrazol-3-yl)carbonyl]pyrimidin-4-yl}amino)-2,3-dihydroxycyclopentyl]methyl sulfamate] are 10 to 100 nM and 81%.
In the same order, the values of `Cc1cc(Cn2ccc(C(=O)c3cncnc3N[C@@H]3C[C@H](COS(N)(=O)=O)[C@@H](O)[C@H]3O)n2)no1` [Compound I-169, [(1R,2R,3S,4R)-2,3-dihydroxy-4-{[5-({1-[(5-methylisoxazol-3-yl)methyl]-1H-pyrazol-3-yl}carbonyl)pyrimidin-4-yl]amino}cyclopentyl]methyl sulfamate] are less than 10 nM and 97%.
In the case of `NS(=O)(=O)OC[C@H]1C[C@@H](Nc2ncncc2C(=O)c2ccn(Cc3ccc(C(F)(F)F)o3)n2)[C@H](O)[C@@H]1O` [Compound I-130, [(1R,2R,3S,4R)-2,3-dihydroxy-4-({5-[(1-{[5-(trifluoromethyl)-2-furyl]methyl}-1H-pyrazol-3-yl)carbonyl]pyrimidin-4-yl}amino)cyclopentyl]methyl sulfamate], the IC50 was less than 10 nM and the inhibition at 0.111 µM was found to be 98%.
The like results for `NS(=O)(=O)OC[C@H]1C[C@@H](Nc2ccncc2C(=O)c2ccn(Cc3ccccc3)n2)[C@H](O)[C@@H]1O` [Compound I-56, [(1R,2R,3S,4R)-4-({3-[(1-Benzyl-1H-pyrazol-3-yl)carbonyl]pyridin-4-yl}amino)-2,3-dihydroxycyclopentyl]methyl sulfamate] were, in that order, less than 10 nM and 100%.
The like results for `Cc1ccc(Cn2ccc(C(=O)c3cncnc3N[C@@H]3C[C@H](COS(N)(=O)=O)[C@@H](O)C3)n2)cc1F` [Compound I-210, {(1R,2S,4R)-4-[(5-{[1-(3-Fluoro-4-methylbenzyl)-1H-pyrazol-3-yl]carbonyl}pyrimidin-4-yl)amino]-2-hydroxycyclopentyl}methyl sulfamate] were, in that order, less than 10 nM and 98%.
Take `NS(=O)(=O)OC[C@H]1C[C@@H](Nc2ncncc2C(=O)c2ccn(Cc3cccc(OC(F)F)c3)n2)C[C@@H]1O` [Compound I-117, [(1R,2S,4R)-4-{[5-({1-[3-(difluoromethoxy)benzyl]-1H-pyrazol-3-yl}carbonyl)pyrimidin-4-yl]amino}-2-hydroxycyclopentyl]methyl sulfamate]: the IC50 was less than 10 nM and the inhibition at 0.111 µM came out at 98%.
As for `NS(=O)(=O)OC[C@H]1C[C@@H](Nc2ccncc2C(=O)c2ccn(Cc3cccc(Cl)c3)n2)C[C@@H]1O` [Compound I-52, {(1R,2S,4R)-4-[(3-{[1-(3-Chlorobenzyl)-1H-pyrazol-3-yl]carbonyl}pyridin-4-yl)amino]-2-hydroxycyclopentyl}methyl sulfamate], the concentration for half-maximal inhibition (IC50) is less than 10 nM and the inhibition at 0.111 µM came to 99%.
`COc1cccc(Cn2ccc(C(=O)c3cncnc3N[C@@H]3C[C@H](COS(N)(=O)=O)[C@@H](O)[C@H]3O)n2)c1` [Compound I-325, {(1R,2R,3S,4R)-2,3-dihydroxy-4-[(5-{[1-(3-methoxybenzyl)-1H-pyrazol-3-yl]carbonyl}pyrimidin-4-yl)amino]cyclopentyl}methyl sulfamate]: the IC50 is less than 10 nM and the inhibition at 0.111 µM was determined as 99%.
The like results for `CC(C)(c1ccccc1)n1ccc(C(=O)c2cncnc2N[C@@H]2C[C@H](COS(N)(=O)=O)[C@@H](O)C2)c1` [Compound I-76, {(1R,2S,4R)-2-hydroxy-4-[(5-{[1-(2-phenylpropan-2-yl)-1H-pyrrol-3-yl]carbonyl}pyrimidin-4-yl)amino]cyclopentyl}methyl sulfamate] were, in that order, 10 to 100 nM and 80%.
Regarding `NS(=O)(=O)OC[C@H]1C[C@@H](Nc2ncncc2C(=O)c2ccn(Cc3cccc(Cl)n3)n2)C[C@@H]1O` [Compound I-95, [(1R,2S,4R)-4-{[5-({1-[(6-chloropyridin-2-yl)methyl]-1H-pyrazol-3-yl}carbonyl)pyrimidin-4-yl]amino}-2-hydroxycyclopentyl]methyl sulfamate], the IC50 was less than 10 nM and the inhibition at 0.111 µM stood at 99%.
For `C=CCn1ccc(C(=O)c2cncnc2N[C@@H]2C[C@H](COS(N)(=O)=O)[C@@H](O)C2)c1` [Compound I-291, [(1R,2S,4R)-4-({5-[(1-allyl-1H-pyrrol-3-yl)carbonyl]pyrimidin-4-yl}amino)-2-hydroxycyclopentyl]methyl sulfamate], the IC50 lay within 10 to 100 nM and the inhibition at 0.111 µM turned out to be 79%.
Consider `NS(=O)(=O)OC[C@H]1C[C@@H](Nc2ncncc2C(=O)c2ccn(Cc3sccc3Cl)n2)C[C@@H]1O` [Compound I-232, [(1R,2S,4R)-4-{[5-({1-[(3-chloro-2-thienyl)methyl]-1H-pyrazol-3-yl}carbonyl)pyrimidin-4-yl]amino}-2-hydroxycyclopentyl]methyl sulfamate], for which the IC50 is less than 10 nM and the inhibition at 0.111 µM worked out at 97%.
